In patent US20250281508A1, “CATIONIC STEROIDAL ANTIMICROBIAL SALTS” (BRIGHAM YOUNG UNIVERSITY, priority 2015, published 2025):
Each block holds one molecule with its values, some of them ahead of it.

What was measured:
[1] = Coating stability (sluff off) of polyurethane coatings on medical devices immersed in water; type: physicochemical
Procedure: (§1) In a first comparative test, medical devices made from various substrate materials (i.e., stainless steel, titanium, and silicone) were coated with polyurethane coatings containing either di-NDSA salts of CSA compounds (i.e., CSA-13 and/or CSA-131) or HCl acid addition salts of the same CSA compounds, and then tested for long-term stability when immersed in water. Coating stability was determined by measuring how fast the coatings began to sluff off from the medical device. The NDSA salts are di-addition salts.

[2] = Coating stability (sluff off) of silicone coatings on medical devices immersed in water; type: physicochemical
Procedure: as §1, with “second” for “first”, “silicone” for “polyurethane”, “device.” for “device. The NDSA salts are di-addition salts.”

[3] = Stability of CSA-13 salts: purity under various conditions; type: physicochemical
Procedure: Approximately 300 mg of CSA-13 was weighed into a scintillation vial. 6 mL of tetrohydrofuran was added to the vial. Hydrochloric acid (2 equivalents) was then added to the vial. […] Solids were isolated and dried at ambient temperature prior to analysis.

[4] = Rate of elution of CSA from polyurethane coatings immersed in water; type: physicochemical
Description: (§2) In a third comparative test, medical devices made from various substrate materials (i.e., stainless steel, titanium, and silicone) were coated with polyurethane coatings containing either a di-NDSA salt of a representative CSA compound (i.e., CSA-131) or the HCl acid addition salt of the same CSA compound, and then tested to determine the rate of elution of the CSA compound from the coated medical device when immersed in water.

[5] = Dynamic vapor sorption (DVS) analysis, XRPD before and after; type: physicochemical
Description: FIG. 9 provides an overlay of the XRPD spectrum pre- and post-DVS analysis.

[6] = Rate of elution of CSA from silicone coatings immersed in water; type: physicochemical
Description: as §2, with “fourth” for “third”, “silicone” for “polyurethane”

[7] = Rate of elution of CSA from impregnated PLGA copolymer devices immersed in water; type: physicochemical; conditions: impregnated PLGA copolymer device
Description: In a fifth comparative test, medical devices were made from PLGA copolymer impregnated with either a di-NDSA salt of a representative CSA compound (i.e., CSA-131) or the HCl acid addition salt of the same CSA compound, and then tested to determine the rate of elution of the CSA compound from the medical device when immersed in water.

[8] = Reactivity with ethylene oxide (EtO) in polyurethane coating, by mass spectroscopy; type: physicochemical; conditions: ETT with polyurethane coating sterilized multiple times with EtO
Description: In a seventh comparative test, the elution rate and antibacterial activity of polyurethane coatings containing either the di-NDSA salt of a representative CSA compound (i.e., CSA-131) or the HCl acid addition salt of the same CSA compound following sterilization with ethylene oxide (EtO) were compared, and also the tendency of the acid addition salt of the CSA compound to react with the EtO.
For EtO reactivity with the HCl acid addition salt of CSA-131, the following percentages of CSA-131 and CSA-131-EtO adducts were observed via mass spectroscopy following EtO treatment of a medical device with a polyurethane coating containing the HCl acid addition salt of CSA-131.
(§3) Moreover, elution of CSA-131 from the ETT with the same polyurethane coating containing the di-NDSA of CSA-131 remained relatively consistent for 96 hours, providing continuous activity against biofilms. This is shown by the data in Table 25.

[9] = Elution of CSA-131 from polyurethane coating following EtO sterilization; type: physicochemical; conditions: for % of Total μg on OD: total CSA-131 content on OD 3976 μg; for Eluted Amount in μg/cm^3: total OD surface area 99.4 cm^2; for Average Amount Eluted: ETT polyurethane coating
Procedure: as §3, with “The elution rate of CSA-131 from the same polyurethane coating containing the HCl acid addition salt of CSA-131 (with solution exchange every 24 hours) is shown in Table 24: […] Moreover,” for “Moreover,”

[10] = Solvent solubility test (solvent addition technique); type: physicochemical
Procedure: (§4) Solubility values were estimated by a solvent addition technique, based on the following protocol: CSA-13 (20 mg) was weighed and individually distributed to 24 vials. Each solvent was added to the appropriate vial in 10 aliquots of 10 μL, 5 aliquots of 20 μL, 3 aliquots of 100 μL, and 1 aliquot of 500 μL. If complete dissolution was observed, the additions were stopped. Between additions, the sample was stirred to further encourage dissolution. If […] of solvent was added without dissolution, the solubility was calculated to be below this point. Polarized light microscopy analysis was performed on solids obtained from acetonitrile, 1,4-dioxane, ethyl acetate, isopropanol, and THF.
A solubility screen was performed as described above for the sulphate salt of CSA-13.
as §4, with “CSA-44” for “CSA-13”, “from acetone,” for “from”, “1,4-dioxane, ethanol,” for “1,4-dioxane,”, “acetate,” for “acetate, isopropanol,”, “methanol.” for “THF.”

[11] = polyurethane coating on Silicone
[12] = polyurethane coating on Stainless Steel
[13] = polyurethane coating on Titanium
[14] = silicone coating on Stainless Steel

Sluff Off Time [1, 11]: None after 30+ days | Sluff Off Time [1, 12]: None after 30+ days | Sluff Off Time [1, 13]: None after 30+ days | Sluff Off Time ([2]; silicone coating on Silicone): None after 30+ days | Sluff Off Time [2, 14]: None after 30+ days | Sluff Off Time ([2]; silicone coating on Titanium): None after 30+ days | Purity (%) ([3]; 40° C./75% RH): 97.93% | Purity (%) ([3]; 80° C.): 98.16% | Purity (%) ([3]; Ambient light): 98.57% | Purity (%) ([3]; Starting Purity): 98.52%
Compound: CCCCCCCCNCCCC(C)C1CCC2C3C(OCCCN)CC4CC(OCCCN)CCC4(C)C3CC(OCCCN)C12C.O=S(=O)(O)c1cccc2c(S(=O)(=O)O)cccc12.O=S(=O)(O)c1cccc2c(S(=O)(=O)O)cccc12 (stereo not shown) [CSA-13 NDSA]

Sluff Off Time [1, 11]: None after 30+ days | Sluff Off Time [1, 12]: None after 30+ days | Sluff Off Time [1, 13]: None after 30+ days | Time for 50% of CSA to elute [4, 11]: >7 days | Time for 50% of CSA to elute [4, 12]: >7 days | Time for 50% of CSA to elute [4, 13]: >7 days | DVS hysteresis ([5]; dynamic vapor sorption isotherm (FIG. 7)): minimal hysteresis | Sluff Off Time ([2]; silicone coating on Silicone): None after 30+ days | Sluff Off Time [2, 14]: None after 30+ days | Sluff Off Time ([2]; silicone coating on Titanium): None after 30+ days | Time for 50% of CSA to elute ([6]; silicone coating on Silicone): >7 days | Time for 50% of CSA to elute [6, 14]: >7 days | Time for 50% of CSA to elute ([6]; silicone coating on Titanium): >7 days | Time for 50% of CSA to elute [7]: >7 days | EtO adducts observed by mass spectroscopy [8]: no EtO adducts were observed | % of Total μg on OD ([9]; 0-24 hours): 2.37% | Eluted Amount in μg/cm^3 ([9]; 0-24 hours): 0.95 μg/cm^2 | % of Total μg on OD ([9]; 24-48 hours): 2.14% | Eluted Amount in μg/cm^3 ([9]; 24-48 hours): 0.85 μg/cm^2 | % of Total μg on OD ([9]; 48-72 hours): 1.63% | Eluted Amount in μg/cm^3 ([9]; 48-72 hours): 0.65 μg/cm^2 | % of Total μg on OD ([9]; 72-96 hours): 2.01% | Eluted Amount in μg/cm^3 ([9]; 72-96 hours): 0.81 μg/cm^2 | Average Amount Eluted ([9]; Total over 0-96 hours): 324 µg | Average Amount Eluted ([9]; time interval 0-24 hours): 94.3 µg | Average Amount Eluted ([9]; time interval 24-48 hours): 84.9 µg | Average Amount Eluted ([9]; time interval 48-72 hours): 64.9 µg | Average Amount Eluted ([9]; time interval 72-96 hours): 80.1 µg | % of Total μg on OD ([9]; Total over 0-96 hours): 8.15% | Eluted Amount in μg/cm^3 ([9]; Total over 0-96 hours): 3.26 μg/cm^2 | Solubility in Ethanol (ethanol): <0.05 mg/mL | Solubility in Water (water): <0.02 mg/mL
Compound: CCCCCCCCCCCCNCCCC(C)C1CCC2C3C(OCCCN)CC4CC(OC(=O)CCN)CCC4(C)C3CC(OCCCN)C12C.O=S(=O)(O)c1cccc2c(S(=O)(=O)O)cccc12.O=S(=O)(O)c1cccc2c(S(=O)(=O)O)cccc12 (stereo not shown) [CSA-131 NDSA]
Effect of DVS analysis on crystallinity ([5]; XRPD after DVS analysis (FIG. 8, 9)): did not significantly impact crystallinity

Purity (%) ([3]; 40° C./75% RH): 97.50% | Purity (%) ([3]; 80° C.): 97.96% | Purity (%) ([3]; Ambient light): 99.76% | Purity (%) ([3]; Starting Purity): 99.34% | Approximate Solubility at 22° C. ([10]; solvent 1,4-dioxane): <11.3 mg/mL | Approximate Solubility at 22° C. ([10]; solvent 1-butanol): >37.7 mg/mL | Approximate Solubility at 22° C. ([10]; solvent 2-propanol): >20.9 mg/mL | Approximate Solubility at 22° C. ([10]; solvent Acetone): <10.5 mg/mL | Approximate Solubility at 22° C. ([10]; solvent Acetonitrile): <10.4 mg/mL | Approximate Solubility at 22° C. ([10]; solvent Dichloromethane): >193.9 mg/mL | Approximate Solubility at 22° C. ([10]; solvent Ethanol): >98.4 mg/mL | Approximate Solubility at 22° C. ([10]; solvent Methanol): >199.7 mg/mL | Approximate Solubility at 22° C. ([10]; solvent TBME): <10.1 mg/mL | Approximate Solubility at 22° C. ([10]; solvent Tetrahydrofuran): <11.0 mg/mL | Approximate Solubility at 22° C. ([10]; solvent Toluene): >102.8 mg/mL
Compound: CCCCCCCCNCCCC(C)C1CCC2C3C(OCCCN)CC4CC(OCCCN)CCC4(C)C3CC(OCCCN)C12C.O=S(=O)(O)O (stereo not shown) [sulphate salt of CSA-13]
